Results reported in ChEMBL document CHEMBL1122367, “Synthesis and antihypertensive activity of a series of spiro[1,3,4,6,7,11b-hexahydro-2H-benzo[a]quinolizine-2,5'-oxazolidin-2'-one]s” (1983).

How the values were obtained:
Rattus norvegicus [1] = assay: Percentage fall in systolic blood pressure in spontaneously hypertensive rats 1 hr after 50 mg/kg p.o. administration; Not significant.; type: functional, organism-based; parameters: dose 50 mg/kg; details: Artery, at 50 mg/kg
Rattus norvegicus [2] = assay: Antihypertensive activity as percentage fall in systolic blood pressure in spontaneously hypertensive rats 4 hr after 25 mg/kg po administration;NS means nonsignificant difference between treated and control group; type: functional, organism-based; parameters: dose 25 mg/kg; details: Artery, at 25 mg/kg
Rattus norvegicus [3] = assay: Percentage fall in systolic blood pressure in spontaneously hypertensive rats 2 hr after 50 mg/kg p.o. administration; Not significant.; type: functional, organism-based; parameters: dose 50 mg/kg; details: Artery, at 50 mg/kg
Rattus norvegicus [4] = assay: Antihypertensive activity as percentage fall in systolic blood pressure in spontaneously hypertensive rats 3h after 25 mg/kg po administration;NS means nonsignificant difference between treated and control group; type: functional, organism-based; parameters: dose 25 mg/kg; details: Artery, at 25 mg/kg
Rattus norvegicus [5] = assay: Percentage fall in systolic blood pressure in spontaneously hypertensive rats 3h after 50 mg/kg p.o. administration; Not significant.; type: functional, organism-based; parameters: dose 50 mg/kg; details: Artery, at 50 mg/kg
Rattus norvegicus [6] = assay: Antihypertensive activity as percentage fall in systolic blood pressure in spontaneously hypertensive rats 4 hr after 50 mg/kg po administration; NS means nonsignificant difference between treated and control group; type: functional, organism-based; parameters: dose 50 mg/kg; details: Artery, at 50 mg/kg
Rattus norvegicus [7] = assay: Antihypertensive activity as percentage fall in systolic blood pressure in spontaneously hypertensive rats 4 hr after 50 mg/kg po administration; type: functional, Artery
Rattus norvegicus [8] = assay: Percentage fall in systolic blood pressure in spontaneously hypertensive rats 2 hr after 50 mg/kg p.o. administration.; type: functional, Artery; details: route oral
Rattus norvegicus [9] = assay: Antihypertensive activity as percentage fall in systolic blood pressure in spontaneously hypertensive rats 3h after 50 mg/kg po administration; type: functional, Artery
Rattus norvegicus [10] = assay: Antihypertensive activity as percentage fall in systolic blood pressure in spontaneously hypertensive rats 1 hr after 50 mg/kg po administration; type: functional, Artery
Rattus norvegicus [11] = assay: Antihypertensive activity as percentage fall in systolic blood pressure in spontaneously hypertensive rats 4 hr after 25 mg/kg po administration; type: functional, Artery
Rattus norvegicus [12] = assay: Antihypertensive activity as percentage fall in systolic blood pressure in spontaneously hypertensive rats 1 hr after 25 mg/kg po administration; type: functional, Artery
Rattus norvegicus [13] = assay: Antihypertensive activity as percentage fall in systolic blood pressure in spontaneously hypertensive rats 2 hr after 25 mg/kg po administration;NS means nonsignificant difference between treated and control group; type: functional, organism-based; parameters: dose 25 mg/kg; details: Artery, at 25 mg/kg
Rattus norvegicus [14] = assay: Antihypertensive activity as percentage fall in systolic blood pressure in spontaneously hypertensive rats 2 hr after 25 mg/kg po administration; type: functional, Artery

Structure (SMILES)	Fall (Rattus norvegicus [1])	Fall (Rattus norvegicus [3])	Fall (Rattus norvegicus [5])	Fall (Rattus norvegicus [6])	Fall (Rattus norvegicus [8])	Fall (Rattus norvegicus [10])	Fall (Rattus norvegicus [7])	Fall (Rattus norvegicus [9])	other results
CC[C@H]1CN2CCc3cc(OC)c(OC)cc3[C@@H]2C[C@]12CNC(=O)O2 [listing 1 of 2 here]	Not significant	Not significant	Not significant	Not significant	–	–	–	–	Fall (Rattus norvegicus [2]): Not significant; Fall (Rattus norvegicus [4]): Not significant
CCCCN1C[C@]2(CCN3CCc4cc(OC)c(OC)cc4[C@@H]3C2)OC1=O	Not significant	Not significant	Not significant	Not significant	–	–	–	–	–
CC[C@H]1CN2CCc3cc4c(cc3[C@@H]2C[C@]12CNC(=O)O2)OCO4	Not significant	Not significant	Not significant	Not significant	–	–	–	–	–
CCCN1C[C@]2(CCN3CCc4cc(OC)c(OC)cc4[C@@H]3C2)OC1=O	Not significant	Not significant	Not significant	Not significant	–	–	–	–	–
CC1Cc2ccccc2[C@@H]2C[C@@]3(CCN12)CNC(=O)O3 (stereo partly drawn)	Not significant	Not significant	Not significant	Not significant	–	–	–	–	–
CC[C@H]1CN2CCc3cc(OC)c(OC)cc3[C@@H]2C[C@]12CNC(=O)O2 (racemic)	–	–	–	–	–	–	–	–	Fall (Rattus norvegicus [7]; 50 mg/kg): 33%; Fall (Rattus norvegicus [8]; 50 mg/kg): 37%; Fall (Rattus norvegicus [9]; 50 mg/kg): 29%; Fall (Rattus norvegicus [10]; 50 mg/kg): 45%
C[C@H]1CN2CC[C@@]3(CNC(=O)O3)C[C@H]2c2ccccc21	Not significant	Not significant	Not significant	Not significant	–	–	–	–	–
COc1cc2c(cc1OC)[C@@H]1C[C@]3(CCN1CC2)CN(C(C)(C)C)C(=O)O3	–	–	Not significant	Not significant	20%	39%	–	–	–
CCCCOc1cc2c(cc1OC)CCN1CC[C@@]3(CNC(=O)O3)C[C@@H]21	–	Not significant	Not significant	Not significant	–	15%	–	–	–
O=C1NC[C@]2(CCN3CCc4ccccc4[C@@H]3C2)O1	Not significant	Not significant	Not significant	Not significant	–	–	–	–	–
C[C@@H]1CN2CC[C@@]3(CNC(=O)O3)C[C@H]2c2ccccc21	–	Not significant	Not significant	Not significant	–	16%	–	–	–
CCCOc1cc2c(cc1OC)CCN1CC[C@@]3(CNC(=O)O3)C[C@@H]21	Not significant	Not significant	Not significant	Not significant	–	–	–	–	–
CC[C@H]1CN2CCc3ccccc3[C@@H]2C[C@]12CNC(=O)O2	–	Not significant	Not significant	Not significant	–	25%	–	–	–
CC[C@H]1NC(=O)O[C@]12CCN1CCc3cc(OC)c(OC)cc3[C@@H]1C2	–	–	–	–	38%	41%	25%	25%	–
CCOc1cc2c(cc1OC)[C@@H]1C[C@]3(CNC(=O)O3)[C@@H](CC)CN1CC2	–	–	–	Not significant	32%	39%	–	17%	–
COc1cc2c(cc1OC)[C@@H]1C[C@]3(CNC(=O)O3)[C@@H](Cc3ccccc3)CN1CC2	–	Not significant	Not significant	–	–	27%	19%	–	–
CCN1C[C@@]2(CCN3CCc4cc(OC)c(OC)cc4[C@@H]3C2)OC1=O	–	Not significant	Not significant	Not significant	–	31%	–	–	–
O=C1NC[C@@]2(CCN3CCc4ccccc4[C@@H]3C2)O1	–	–	–	–	26%	22%	12%	14%	Fall (Rattus norvegicus [11]): 25%; Fall (Rattus norvegicus [12]): 20%; Fall (Rattus norvegicus [4]): Not significant; Fall (Rattus norvegicus [13]): Not significant

Structure (SMILES)	Fall (Rattus norvegicus [1])	Fall (Rattus norvegicus [3])	Fall (Rattus norvegicus [5])	Fall (Rattus norvegicus [6])	Fall (Rattus norvegicus [8])	Fall (Rattus norvegicus [10])	Fall (Rattus norvegicus [7])	Fall (Rattus norvegicus [9])	other results
COc1cc2c(cc1OC)[C@@H]1C[C@]3(CCN1CC2)CN(C(C)C)C(=O)O3	–	–	Not significant	Not significant	16%	29%	–	–	–
CC[C@H]1CN2CCc3cc(OC)c(OC)cc3[C@@H]2C[C@@]12OC(=O)N[C@H]2CC	–	–	–	–	48%	43%	24%	30%	–
O=C1NC[C@@]2(CCN3CCc4cc5c(cc4[C@@H]3C2)OCO5)O1	–	Not significant	–	Not significant	–	28%	–	14%	–
CCOc1cc2c(cc1OC)CCN1C[C@H](CC)[C@@]3(CNC(=O)O3)C[C@@H]21	–	–	–	Not significant	22%	25%	–	17%	–
CN1C[C@@]2(CCN3CCc4ccccc4[C@@H]3C2)OC1=O	Not significant	Not significant	Not significant	Not significant	–	–	–	–	–
COc1cc2c(cc1OC)[C@@H]1C[C@@]3(CCN1CC2)CN(C)C(=O)O3	–	–	Not significant	–	14%	28%	21%	–	–
COc1cc2c(cc1OC)[C@@H]1C[C@]3(CCN1CC2)CN(C)C(=O)O3	–	Not significant	Not significant	–	–	27%	18%	–	–
CN1C[C@]2(CCN3CCc4ccccc4[C@@H]3C2)OC1=O	Not significant	–	–	Not significant	-10%	–	–	-12%	–
CC[C@H]1CN2CCc3cc(OC)c(OC)cc3[C@@H]2C[C@]12CNC(=O)O2 [listing 2 of 2 here]	–	–	–	–	–	–	–	–	Fall (Rattus norvegicus [7]; 50 mg/kg): 28%; Fall (Rattus norvegicus [8]; 50 mg/kg): 40%; Fall (Rattus norvegicus [9]; 50 mg/kg): 33%; Fall (Rattus norvegicus [10]; 50 mg/kg): 52%; Fall (Rattus norvegicus [12]): 44%; Fall (Rattus norvegicus [14]): 30%
COc1cc2c(cc1OC)[C@@H]1C[C@]3(CCN1CC2)CNC(=O)O3	Not significant	Not significant	Not significant	Not significant	–	–	–	–	–
CCCC[C@H]1CN2CCc3cc(OC)c(OC)cc3[C@@H]2C[C@]12CNC(=O)O2	–	–	–	–	21%	34%	13%	13%	–
COc1cc2c(cc1OC)[C@@H]1C[C@]3(CNC(=O)O3)[C@@H](c3ccccc3)CN1CC2	Not significant	Not significant	–	Not significant	–	–	–	-9%	–
CCC[C@H]1CN2CCc3cc(OC)c(OC)cc3[C@@H]2C[C@]12CNC(=O)O2	–	–	–	–	27%	41%	16%	17%	–
O=C1NC[C@@]2(CCN3C[C@@H](c4ccccc4)c4ccccc4[C@@H]3C2)O1	Not significant	Not significant	Not significant	Not significant	–	–	–	–	–
COc1cc2c(cc1OC)[C@@H]1C[C@]3(CNC(=O)O3)[C@@H](C)CN1CC2	–	–	–	–	41%	47%	25%	37%	Fall (Rattus norvegicus [11]): 15%; Fall (Rattus norvegicus [12]): 27%; Fall (Rattus norvegicus [4]): Not significant; Fall (Rattus norvegicus [14]): 19%
COc1cc2c(cc1OC(C)C)[C@@H]1C[C@@]3(CCN1CC2)CNC(=O)O3	–	Not significant	–	Not significant	–	19%	–	8%	–
CC[C@@H]1NC(=O)O[C@]12CCN1CCc3cc(OC)c(OC)cc3[C@@H]1C2	–	–	–	–	37%	45%	27%	30%	–
COc1cc2c(cc1OC)[C@@H]1C[C@@]3(CCN1CC2)CNC(=O)O3	Not significant	Not significant	Not significant	Not significant	13%	20%	15%	12%	Fall (Rattus norvegicus [12]): 22%; Fall (Rattus norvegicus [4]): Not significant; Fall (Rattus norvegicus [14]): 19%
